Measured values: patent publication US4234736A, “Antiandrogenic and schistosomicidal imidazolidine derivatives” (Hoffmann-La Roche Inc., priority 1977, dated 1980)
Several values for one entry are separate records, joined by “and”; a condition that tells them apart may be missing. Equal entries are not always repeated.

Assays:
[1] = tested on: ventral prostate; experiment: Antiandrogenic test: ventral prostate weight in testosterone propionate-treated rats; assay type: in vivo, rat; conditions: sterilized male rats, 5 per group; s.c. daily for 7 days; compound 10 mg/kg + testosterone propionate 0.5 mg/kg, or testosterone propionate 0.5 mg/kg alone
Experimental: (§1) The antiandrogenic activity of the compositions of this invention can be determined in the following test:
(§2) 10 mg. per kg of the composition together with 0.5 mg. per kg. of testosterone propionate are administered s.c. daily for 7 days to each of 5 male, sterilized rats. Two control groups of 5 rats each were also used. One control group received no treatment. The second control group received only 0.5 mg. per kg. of testosterone propionate.
(§3) Testosterone propionate causes an increase in weight in the ventral prostrate and the seminal vesicle. Thus, a decrease in weight in the ventral prostrate and the seminal vesicle when a composition containing a compound of formula I is given to the rats in combination with testosterone propionate is a measure of the antiandrogenic activity of that compound.

[2] = tested on: Schistosoma mansoni; experiment: Schistosomicidal activity in infected mice (VD50); assay type: in vivo; conditions: po, 1008 h, p.o., administered 5 times (5 successive days), from 42 days after infection, Probit method, read-out: VD50 (vermicidal dose 50%: the dose which kills 50% of the worm pairs)
Experimental: Mice were infected subcutaneously with 60 cercariae of Schistosoma mansoni. 42 days after the infection, the animals were treated perorally on 5 successive days with the compositions to be tested 5-10 mice were used for each composition and dosage rate (mg/kg). 10 untreated mice serve as the control. The mice were autopsied either 6 days or 2-3 weeks after conclusion of the treatment. Worm pairs in mesenteric veins, the portal vein and the liver were removed and counted. The percent distribution of the worm pairs in mesenteric veins, the portal vein and the liver was calculated and the condition of the worms (living and dead) recorded. The schistosomicidal activity of the compositions containing a compound of formula I is shown both by an increased proportion of worms in the vessels of the liver and in the appearance of dead worms.
For the evaluation, the percentage proportions of living and dead worm pairs in the vessels of the liver both in infected, treated animals and in infected but untreated control animals were compared. The determination of the VD50 (vermicidal dose 50%: the dose which kills 50% of the worm pairs) is carried out by the Probit method.

[3] = LD50 (acute toxicity), p.o.; conditions: in vivo, po, species not given
[4] = tested on: seminal vesicle; experiment: Antiandrogenic test: seminal vesicle weight in testosterone propionate-treated rats; assay type: in vivo, rat; conditions: sterilized male rats, 5 per group; s.c. daily for 7 days; compound 10 mg/kg + testosterone propionate 0.5 mg/kg, or testosterone propionate 0.5 mg/kg alone
Experimental: as §1, §2, §3

`CC1(C)NC(=O)N(c2ccc(Cl)c(Cl)c2)C1=O` [3-(3,4-Dichloro-phenyl)-5,5-dimethyl-hydantoin] gave a Ventral prostate weight [1] of 36 ± 4 mg, an ED50 [2] of 58 mg/kg and an LD50 [3] of 2500 to 5000 mg/kg. It also gave a Seminal vesicle weight [4] of 29 ± 2 mg.

Molecule `CC1(C)NC(=O)N(c2cccc(C(F)(F)F)c2)C1=O` [3-(3-Trifluoromethyl-phenyl)-5,5-dimethyl-hydantoin] has an LD50 [3] of 625 to 1250 mg/kg.

Molecule `CC1(C)NC(=O)N(c2ccc(Cl)cc2)C1=O` [3-(4-Chloro-phenyl)-5,5-dimethyl-hydantoin] has an ED50 [2] of 77 mg/kg and an LD50 [3] of 1250 to 2500 mg/kg.

With `CC1(C)NC(=O)N(c2ccc(F)cc2)C1=O` [3-(4-Fluoro-phenyl)-5,5-dimethyl-hydantoin] the ED50 [2] was 69 mg/kg and the LD50 [3] was 600 to 1200 mg/kg.

With `COC(=O)C(C)(C)NC(=O)Nc1ccc(Cl)c(C(F)(F)F)c1` [N-[(3-Trifluoromethyl-4-chloro-phenyl)-carbamoyl]-2-methylalanine methyl ester] the Ventral prostate weight [1] was 61 ± 6 mg, the ED50 [2] was 74 mg/kg and the LD50 [3] was over 5000 mg/kg. The Seminal vesicle weight [4] was 47 ± 11 mg.

In the case of `CCC(=O)O[C@H]1CC[C@H]2[C@@H]3CCC4=CC(=O)CC[C@]4(C)[C@H]3CC[C@]12C` [Testosterone propionate, reference compound], the Ventral prostate weight [1] is reported as 140 ± 11 mg and 121 ± 13 mg and the Seminal vesicle weight [4] is reported as 88 ± 5 mg and 100 ± 9 mg.
